Data from PMC12125420, “Yinling Qushi Granule as a therapeutic agent for metabolic syndrome: pharmacological, molecular targets, and pharmacokinetic insights” (Advanced Biotechnology, 2025).

Assay: Pharmacokinetics of absorbed triterpenoid prototypes in rat serum after oral YLQS extract
Details: male, Sprague-Dawley, 36.99 g/kg
Experimental: (§1) SPF grade Sprague–Dawley rats (n = 6, male, 8–10-week-old, 300 ± 20 g) were obtained from the Guangdong Medical Laboratory Animal Center (Guangzhou, China, Certificate No. SCXK 2022–0002), maintained in environmental conditions with a temperature of 20–25 °C, humidity of 55 ± 15%, and a 12-h light/dark cycle. Animals were acclimated for 7 days prior to drug administration. The experimental procedures and protocols have been approved by the Animal Ethics Committee of the School of Life Sciences, Sun Yat-sen University (Ethics approval No. SYSU-lS-IACUC- 2024–0130, Guangzhou, China), with every effort being made to minimize the suffering of the animals.
(§2) In order to investigate the absorbable components in vivo, Yinling Qushi (YLQS) extract was prepared as follows: 77.76 g of Poria cocos (Schw.) Wolf (Fuling, FL), 29.16 g of Atractylodes macrocephala Koidz. (Baizhu, BZ), 12.96 g of Zingiber officinale Rosc. (Ganjiang, GJ), 19.44 g of Polyporus umbellatus (Pers.) Fries (Zhuling, ZL), 19.44 g of Cinnamomum cassia Presl (Guizhi, GZ), 24.30 g Artemisia capillaris Thunb. (Yinchen, YC), 19.44 g Glehnia littoralis Fr.Schmidt ex Miq. (Beishashen, BSS) and 19.44 g of Glycyrrhiza uralensis Fisch. (Gancao, GC) were weighted. The weighted herbs were mixed thoroughly and extracted with 750 mL boiling water for 1 h, twice. The aqueous extracts were combined, filtered, and concentrated by rotary evaporation to a total volume of 12 mL, with a final extraction yield of 18.5 g crude herbal materials per 1 mL of Yinling Qushi (YLQS) extract.
(§3) SD Rats were fasted for 12 h, followed by orally administrated with Yinling Qushi (YLQS) extract at a dose of 36.99 g/kg (6.7 mL/kg). 200 μL of venous blood was collected at 0 min, 15 min, 30 min, 1 h, 2 h, 4 h, 6 h, 8 h, 10 h, 12 h, and 24 h post-gavage. Serum samples were freshly prepared by centrifugation (3,000 g, 20 min, 4 ℃), supernatant collection and storage at − 80 ℃ till analysis.
(§4) For serum extraction, 90 μL serum of indicated time points were pre-mixed with 10 μL IS working solution (myristic acid-D27, 10 μg/mL in methanol). 1 mL ethyl acetate was added to 100 μL premixed serum, vortexed vigorously for 5 min, and centrifuged (10,000 g, 15 min, 4 ℃) for protein precipitation. 700 μL of supernatant was transferred and evaporated to dryness under nitrogen flow. Prior to assay, samples were re-suspended with 100 μL methanol: distill water solution (4:1, v/v), sonicated and vortex-mixing for dissolve completely, and centrifuged (10,000 g, 20 min, 4 ℃). 10 μL of supernatant was analyzed using a connected system of AQUITY UPLC (Waters Corp., Milford, MA, USA) hybrid ZenoTOF 7600-MS/MS system (AB Sciex, Framingham, MA, USA) with electrospray ionization (ESI) source.
(§5) A reversed-phase Kinetex C18 column (2.1 × 100 mm, 2.6 μm, Phenomenex, CA, USA) was used, with 0.3 mL/min flow rate at 40 ℃. The mobile phase consisted of an aqueous solvent A (0.1% formic acid, v/v) and organic solvent B (acetonitrile with 0.1% formic acid, v/v). The elution gradient was as follows: 5–30% B (0–20 min); 30–95% B (20–27 min), maintained at 95% B (27–32 min); 95–5% B (32–33 min); and 5% B (33–38 min) to equilibrate the system.
(§6) The instrumental parameters of mass spectrometry were as follows: ion source gas 1 and gas 2 were both 55 psi, curtain gas was 35 psi, the CAD gas was 8 psi, and the ion source temperature was 550 °C. The ion spray voltage floating (ISVF) was set to 5500 V for positive mode and − 4500 V for negative mode. The collision energy (CE) and collision energy spread (CES) were set to 35 V and 15 eV, and declustering potential was 80 V. The mass-to-charge ratio (m/z) range was set to 50–1500 Da, with an accumulation time of 0.15 s. Data were collected by SCIEX OS software (version 3.3.0.12027, AB Sciex, Framingham, MA, USA) in information-dependent acquisition (IDA) mode.

| AUC(0-inf) [ng·h/mL] | AUC(0-t) [ng·h/mL] | Cmax [ng/mL] | Tmax [h] | half-life [h] | Structure (SMILES) |
| --- | --- | --- | --- | --- | --- |
| 2540 ± 264 | 1970 ± 280 | 290 ± 44.5 | 5.6 ± 0.75 | 4.95 ± 0.81 | C=C(C)C1CC=C2C(=CCC3(C)C(C(CCC=C(C)C)C(=O)O)CCC23C)C1(C)CCC(=O)O (stereo not drawn) [16-Deoxyporicoic acid B] |
| 2290 ± 621 | 2710 ± 417 | 214 ± 53.8 | 5.5 ± 0.96 | 4.11 ± 0.82 | C=C(C)[C@@H]1CC=C2C(=CC[C@]3(C)[C@@H]([C@@H](CCC=C(C)C)C(=O)O)[C@H](O)C[C@@]23C)[C@@]1(C)CCC(=O)O [Poricoic acid B] |
| 105 ± 13.6 | 77.1 ± 12.4 | 13.2 ± 2 | 4 ± 1.41 | 4.61 ± 1.21 | C=C(C)[C@@H]1CC=C2C(=CC[C@]3(C)[C@@H]([C@@H](CCC(=C)C(C)(C)O)C(=O)O)[C@H](O)C[C@@]23C)[C@@]1(C)CCC(=O)OC [Poricoic acid DM] |
| 82 ± 5.1 | 68 ± 10.1 | 7.5 ± 1.3 | 6.4 ± 1.72 | 5.51 ± 0.88 | C=C(C)C1CC=C2C(=CCC3(C)C(C(CCC(=C)C(C)(C)O)C(=O)O)C(O)CC23C)C1(C)CCC(=O)O (stereo not drawn) [Poricoic acid D] |
| 223 ± 30.6 | 205 ± 25.1 | 16 ± 2.7 | 8.5 ± 1.5 | 6.64 ± 0.75 | C=C(C)C1CC=C2C(=CCC3(C)C(C(CCC=C(C)CO)C(=O)O)C(O)CC23C)C1(C)CCC(=O)O (stereo not drawn) [Poricoic acid E] |
| 4420 ± 367 | 4090 ± 442 | 470 ± 89.2 | 5.5 ± 0.96 | 3.5 ± 1.08 | C=C(C)[C@@H]1CCC2=C(CC[C@]3(C)[C@@H]([C@@H](CCC=C(C)C)C(=O)O)[C@H](O)C[C@@]23C)[C@@]1(C)CCC(=O)O [Poricoic acid G] |

Assay: in vivo
Details: male, Sprague-Dawley, rat, po, 36.99 g/kg
Experimental: as §1, §2, §3, §4, §5, §6

| Structure (SMILES) | AUC(0-inf) [ng·h/mL] | AUC(0-t) [ng·h/mL] | Cmax [ng/mL] | Tmax [h] | half-life [h] |
| --- | --- | --- | --- | --- | --- |
| CC(C)=CCCC(C(=O)O)C1C(O)CC2(C)C3=CCC4C(C)(CCC(O)C4(C)C)C3=CCC12C (stereo not drawn) [16alpha-Hydroxydehydrotrametenolic acid] | 136000 | 136000 | 16800 | 4.4 ± 0.75 | 1.78 ± 0.09 |
| CC(C)C(=O)CCC(C(=O)O)C1C(O)CC2(C)C3=C(CCC12C)C1(C)CCC(O)C(C)(C)C1CC3 (stereo not drawn) [Daedaleanic acid B] | 170 ± 27.6 | 129 ± 32.5 | 20.6 ± 0.8 | 1.35 ± 0.68 | 3.84 ± 0.75 |
| CC(=CCCC(C(=O)O)C1C(O)CC2(C)C3=CCC4C(C)(CCC(O)C4(C)C)C3=CCC12C)CO (stereo not drawn) [Dihydroxydehydrotrametenoic acid] | 3270 ± 142 | 3030 ± 356 | 308 ± 35.6 | 4.4 ± 0.75 | 4.98 ± 1.07 |
| CC(C)=CC1CC(C2CCC3(C)C4=CCC5C(C)(CCC(O)C5(C)C)C4=CCC23C)C(=O)O1 (stereo not drawn) [Porilactone A] | 9200 ± 744 | 9460 ± 501 | 846 ± 31.9 | 6.5 ± 1.89 | 2.15 ± 0.24 |

Assay: not given
Details: rat, in vivo

| Structure (SMILES) | Absorption pattern of serum concentration-time curve |
| --- | --- |
| CC(C)=CC1CC(C2CCC3(C)C4=CCC5C(C)(CCC(O)C5(C)C)C4=CCC23C)C(=O)O1 (stereo not drawn) [Porilactone A] | double-peak absorption pattern |
